US20210403435A1, “HERBICIDAL COMPOUNDS” (SYNGENTA CROP PROTECTION AG, priority 2018, published 2021)
Structures can show the parent of a compound that is named as a salt.

Key:
Assay in all cases: Post-emergence efficacy, glasshouse, evaluated after 13 days
Assay type in all cases: in vivo
Lolium perenne (LOLPE) = settings: Lolium perenne, 312 h; post-emergence application, 500 g/Ha, evaluated after 13 days; read-out: Control of weed species LOLPE (100=total damage to plant; 0=no damage to plant)
Procedure, shortened: (§1)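 Sprayed at 14 days after sowing with an emulsifiable IF50-based formulation in aqueous surfactant/ammonium sulphate diluent, the plants were kept in a 24/16 °C glasshouse with 14 h light. Visual herbicidal damage was recorded after 13 days on a 0–100 scale.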

[1] = system: Digitaria sanguinalis (DIGSA); settings: Digitaria sanguinalis, 312 h; post-emergence application, 500 g/Ha, evaluated after 13 days; read-out: Control of weed species DIGSA (100=total damage to plant; 0=no damage to plant)
Procedure, shortened: as §1

[2] = system: Euphorbia heterophylla (EPHHL); settings: Euphorbia heterophylla, 312 h; post-emergence application, 500 g/Ha, evaluated after 13 days; read-out: Control of weed species EPHHL (100=total damage to plant; 0=no damage to plant)
Procedure, shortened: as §1

[3] = system: Ipomoea hederacea (IPOHE); settings: Ipomoea hederacea, 312 h; post-emergence application, 500 g/Ha, evaluated after 13 days; read-out: Control of weed species IPOHE (100=total damage to plant; 0=no damage to plant)
Procedure, shortened: as §1

Setaria faberi (SETFA) = settings: Setaria faberi, 312 h; post-emergence application, 500 g/Ha, evaluated after 13 days; read-out: Control of weed species SETFA (100=total damage to plant; 0=no damage to plant)
Procedure, shortened: as §1

[4] = system: Echinochloa crus-galli (ECHCG); settings: Echinochloa crus-galli, 312 h; post-emergence application, 500 g/Ha, evaluated after 13 days; read-out: Control of weed species ECHCG (100=total damage to plant; 0=no damage to plant)
Procedure, shortened: as §1

[5] = system: Chenopodium album (CHEAL); settings: Chenopodium album, 312 h; post-emergence application, 500 g/Ha, evaluated after 13 days; read-out: Control of weed species CHEAL (100=total damage to plant; 0=no damage to plant)
Procedure, shortened: as §1

Eleusine indica (ELEIN) = settings: Eleusine indica, 312 h; post-emergence application, 500 g/Ha, evaluated after 13 days; read-out: Control of weed species ELEIN (100=total damage to plant; 0=no damage to plant)
Procedure, shortened: as §1

[6] = system: Amaranthus palmeri (AMAPA); settings: Amaranthus palmeri, 312 h; post-emergence application, 500 g/Ha, evaluated after 13 days; read-out: Control of weed species AMAPA (100=total damage to plant; 0=no damage to plant)
Procedure, shortened: as §1

SMILES	pest or weed control at 500 g/ha (Lolium perenne (LOLPE)) [%]	pest or weed control at 500 g/ha [1] [%]	pest or weed control at 500 g/ha [2] [%]	pest or weed control at 500 g/ha [3] [%]	pest or weed control at 500 g/ha (Setaria faberi (SETFA)) [%]	pest or weed control at 500 g/ha [4] [%]	pest or weed control at 500 g/ha [5] [%]	pest or weed control at 500 g/ha (Eleusine indica (ELEIN)) [%]	pest or weed control at 500 g/ha [6] [%]
CN(C(=O)c1cc[n+](CCC(=O)O)nc1)c1ccccc1 [Compound A38, 3-[4-[methyl(phenyl)carbamoyl]pyridazin-1-ium-1-yl]propanoic acid trifluoroacetate]	20	70	80	40	90	60	90	60	100
CNC(=O)c1cn[n+](CCS(=O)(=O)[O-])cc1-c1ccccc1 [Compound A39]	10	40	50	20	30	40	70	50	70
COCCNC(=O)c1cc[n+](CCC(=O)O)nc1 [Compound A40]	70	100	100	60	100	90	90	100	100
O=C(O)CC[n+]1ccc(C(=O)Nc2ccon2)cn1 [Compound A41]	10	70	90	20	90	50	90	60	80
COC(=O)CC[n+]1ccc(C(=O)Nc2nccs2)cn1 [Compound A42]	10	10	60	10	10	10	40	10	20
CCNC(=O)c1cc[n+](CCC(=O)O)nc1 [Compound A43]	50	100	100	70	100	60	90	100	100
O=C(O)CC[n+]1ccc(C(=O)NCCO)cn1 [Compound A44]	30	100	100	100	100	90	100	30	100
CCCNC(=O)c1cc[n+](CCC(=O)O)nc1 [Compound A46]	20	90	100	40	100	80	70	10	50
O=C(O)CC[n+]1ccc(C(=O)NCC(F)(F)F)cn1 [Compound A47]	30	100	100	90	90	100	90	20	100
